Test results published in the NIST ThermoML archive (doi:10.1016/j.fluid.2014.01.019).

Experiment: xn = mol fraction of the nth substance listed
Settings: 101 kPa, Liquid; for mass density: Vibrating tube method; for speed of sound: Frequency=2 MHz, Linear variable-path acoustic interferometer

Cc1cccc(Cl)c1 [3-chlorotoluene] + OCc1ccccc1
Settings	mass density, 298.15 K [kg/m3]	mass density, 303.15 K [kg/m3]	mass density, 308.15 K [kg/m3]	mass density, 313.15 K [kg/m3]	speed of sound, 303.15 K [m/s]	speed of sound, 313.15 K [m/s]
x2 = 0.0583	1065.82	1061.18	1056.8	1052.23	1298	1294
x2 = 0.1107	1064.36	1059.84	1055.47	1050.83	1316	1304
x2 = 0.1903	1062.34	1057.86	1053.42	1048.82	1340	1321
x2 = 0.2401	1061.05	1056.6	1052.17	1047.95	1356	1331
x2 = 0.3028	1059.47	1055.2	1050.6	1046.35	1374	1343
x2 = 0.3703	1057.61	1053.44	1048.89	1044.54	1394	1356
x2 = 0.4442	1055.83	1051.49	1047.05	1042.9	1414	1371
x2 = 0.5405	1053.04	1049.21	1044.67	1040.69	1440	1389
x2 = 0.6285	1050.88	1046.99	1042.53	1038.52	1462	1409
x2 = 0.7019	1049.03	1045.09	1040.75	1036.95	1477	1422
x2 = 0.7558	1047.64	1043.62	1039.43	1035.23	1487	1435
x2 = 0.8109	1046.31	1042.35	1038.15	1034.05	1494	1446
x2 = 0.8546	1045.2	1041.4	1037.11	1033.02	1501	1455
x2 = 0.8946	1044.04	1040.31	1036.18	1032.43	1504	1462
x2 = 0.9498	1042.49	1038.83	1034.89	1030.91	1510	1474

Cc1cccc([N+](=O)[O-])c1 [3-nitrotoluene] + OCc1ccccc1
Settings	mass density, 298.15 K [kg/m3]	mass density, 303.15 K [kg/m3]	mass density, 308.15 K [kg/m3]	mass density, 313.15 K [kg/m3]	speed of sound, 303.15 K [m/s]	speed of sound, 313.15 K [m/s]
x2 = 0.0537	1146.83	1141.95	1137.26	1132.52	1446	1414
x2 = 0.1225	1139.74	1134.93	1130.25	1125.57	1451	1419
x2 = 0.1914	1132.59	1127.81	1123.19	1118.56	1456	1424
x2 = 0.2356	1127.96	1123.23	1118.65	1114.02	1459	1427
x2 = 0.2992	1121.25	1116.57	1112.02	1107.46	1464	1432
x2 = 0.3717	1113.52	1108.89	1104.4	1099.9	1469	1438
x2 = 0.4567	1104.33	1099.76	1095.34	1090.91	1476	1444
x2 = 0.5413	1095.03	1090.53	1086.18	1081.85	1481	1452
x2 = 0.6035	1088.09	1083.66	1079.37	1075.08	1486	1456
x2 = 0.6539	1082.39	1078.02	1073.77	1069.5	1490	1460
x2 = 0.7023	1076.86	1072.56	1068.36	1064.17	1494	1463
x2 = 0.7437	1072.1	1067.84	1063.65	1059.52	1496	1467
x2 = 0.8121	1064.1	1059.94	1055.82	1051.76	1502	1472
x2 = 0.8556	1058.96	1054.85	1050.78	1046.79	1505	1475
x2 = 0.9354	1049.37	1045.39	1041.41	1037.5	1511	1481

Cc1ccc(Cl)cc1 [4-chlorotoluene] + OCc1ccccc1
Settings	mass density, 298.15 K [kg/m3]	mass density, 303.15 K [kg/m3]	mass density, 308.15 K [kg/m3]	mass density, 313.15 K [kg/m3]	speed of sound, 303.15 K [m/s]	speed of sound, 313.15 K [m/s]
x2 = 0.0509	1063.78	1058.47	1053.11	1048.16	1292	1248
x2 = 0.1252	1062.11	1056.85	1051.49	1046.61	1327	1265
x2 = 0.1878	1060.69	1055.5	1050.13	1045.28	1350	1281
x2 = 0.2309	1059.7	1054.46	1049.19	1044.4	1370	1288
x2 = 0.3028	1058.05	1052.76	1047.63	1042.92	1394	1307
x2 = 0.3649	1056.62	1051.58	1046.32	1041.65	1415	1325
x2 = 0.4393	1054.9	1049.98	1044.75	1040.17	1439	1343
x2 = 0.5424	1052.48	1047.59	1042.61	1038.12	1468	1369
x2 = 0.6094	1050.91	1046.21	1041.23	1036.83	1480	1387
x2 = 0.6598	1049.71	1045.06	1040.21	1035.88	1493	1399
x2 = 0.7028	1048.68	1044.09	1039.35	1035.06	1502	1410
x2 = 0.7557	1047.41	1042.91	1038.31	1034.1	1506	1423
x2 = 0.8153	1045.97	1041.58	1037.16	1033.02	1511	1437
x2 = 0.8539	1045.04	1040.74	1036.42	1032.32	1513	1448
x2 = 0.9235	1043.33	1039.23	1035.1	1031.15	1514	1465
